Here are results for 2 compounds from patent publication US20230112418A1, “COMPOUND AND RADIOACTIVE LABELING COMPOUND” (NIHON MEDI-PHYSICS CO., LTD., priority 2020, published 2023).

Where only a bound is given, the exact number is not on record here.

In data set [1] the test system is LNCaP tumor transplanted mice. Description: Suppression of tumor growth by 90Y-labeled compound. Type of data set: in vivo. The settings on record: 3.7 MBq i.v., FIG. 8. The procedure:
A saline solution (100 μL) of [^90Y]Y-PSMA-DA1 (3.7 MBq) or [^90Y]Y-PSMA-DB (3.7 MBq) obtained by the above-described method was injected into each of the LNCaP tumor transplanted mice via the tail vein thereof (n=7). As a control group, 100 μL of saline was injected into each of the LNCaP tumor transplanted mice via the tail vein thereof (n=7).
After the injection of the ^90Y-labeled compound, a tumor volume and a body weight were measured three times per week. The tumor volume was calculated based on a calculation formula “(tumor volume)=[(long side)×(short side)^2/2]”.

For data set [2] the following is noted: compared with kidney value one hour after the injection; EJNMMI Res 2012, J Nucl Med 2017; cited from earlier work.

On to `O=C([O-])CN1CCN(C(CCC(=O)NCCCC[C@H](NC(=O)N[C@@H](CCC(=O)O)C(=O)O)C(=O)O)C(=O)[O-])CCN(CC(=O)[O-])CCN(C(CCC(=O)Nc2ccccc2)C(=O)[O-])CC1.[90Y+3]` (some centres unmarked) [[^90Y]Y-PSMA-DB], for which the “Time after injection at which a significant difference in tumor volume vs saline group was observed” value in data set [1] is ≥ 33 days. As to `O=C([O-])CN(CCN(CC(=O)[O-])Cc1cc(CCC(=O)NCCCCCC(=O)NCCCC[C@H](NC(=O)N[C@@H](CCC(=O)O)C(=O)O)C(=O)O)ccc1[O-])Cc1cc(CCC(=O)O)ccc1[O-].[68Ga+3].[OH3+]` [[^68Ga]Ga-PSMA-11], the “Accumulation in the kidney (literature)” value in data set [2] is on record as 139 % ID/g.
